Laboratory results as given in PMC10004777 (Molecules, 2023).
pKi: −log10 of the molar value. Read-outs that look alike come from different tables or passages of the source.

Columns and labels:
MDM2 protein = target: T1, MDM2 protein (Homo sapiens, UniProt Q00987); design: method as in PMID 22380771
T1 construct: purchased Protintech (so in the source)

[1] = test system: 95-D cells versus H1299 cells; design: method as in doi:10.13386/j.issn1002-0306.2015.11.030; details: cited from earlier work
HK-2 cells = assay: Cell viability (MTT) assay, HK-2 normal cells (cytotoxicity); type: cell-based; details: HK-2 normal cells, 48 h, MTT
Procedure: (§1) The cell lines present in this study were obtained from Procell Life Science & Technology Co. Ltd. MCF-7, HepG2 and SJSA-1 cells were cultured in DMEM medium (DMEM, Gibco) supplemented with 10% fetal bovine serum (FBS, Gibco), 1% penicillin-streptomycin (Hyclone) at 37℃ in a humid environment with 5% CO2. HK-2 cells were cultured in DMEM/F12 (1:1) medium and placed in incubators in the same environment.
(§2) Cell viability was determined by MTT assay. MCF-7, HepG2, SJSA-1 and HK-2 cells (6 × 10^3 cells /well) were seeded in 96-well plates with serum-free medium for 24 h. […] After 48 or 72 h, 10 μL MTT (5 mg/mL, Beyotime) was added and incubated at 37 °C for 4 h. Then 100 μL of lysate was added. After complete dissolution of the crystal, the absorbance was measured at 540 nm and expressed as the average percentage of absorbance between treated and control cells. The value for control cells was set at 100%. Cell survival rate was calculated as the ratio of the absorbance of the cells and negative control after minus the blank absorbance respectively.

[2] = test system: MCF-7 breast cancer cells; assay: Cell viability (MTT) assay, MCF-7; type: cell-based; details: 48 h, MTT
Procedure: MCF-7 is a commonly used tumor cell line.
as §1, §2

[3] = test system: osteosarcoma cell line SJSA-1; assay: Cell viability (MTT) assay, SJSA-1; type: cell-based; details: 72 h, MTT
Procedure: (§3) To investigate the selectivity of these derivatives towards different tumor cell lines, we also selected HepG2 and osteosarcoma cell line SJSA-1 cells to evaluate the anti-proliferation activity of the derivatives. […] Except for compounds A2 and A11, the effects of other compounds on SJSA-1 were not strong.
as §1, §2

HepG2 cells = assay: Cell viability (MTT) assay, HepG2; type: cell-based; details: 48 h, MTT
Procedure: as §3, §1, §2

T1 sequence (Q00987 whole entry): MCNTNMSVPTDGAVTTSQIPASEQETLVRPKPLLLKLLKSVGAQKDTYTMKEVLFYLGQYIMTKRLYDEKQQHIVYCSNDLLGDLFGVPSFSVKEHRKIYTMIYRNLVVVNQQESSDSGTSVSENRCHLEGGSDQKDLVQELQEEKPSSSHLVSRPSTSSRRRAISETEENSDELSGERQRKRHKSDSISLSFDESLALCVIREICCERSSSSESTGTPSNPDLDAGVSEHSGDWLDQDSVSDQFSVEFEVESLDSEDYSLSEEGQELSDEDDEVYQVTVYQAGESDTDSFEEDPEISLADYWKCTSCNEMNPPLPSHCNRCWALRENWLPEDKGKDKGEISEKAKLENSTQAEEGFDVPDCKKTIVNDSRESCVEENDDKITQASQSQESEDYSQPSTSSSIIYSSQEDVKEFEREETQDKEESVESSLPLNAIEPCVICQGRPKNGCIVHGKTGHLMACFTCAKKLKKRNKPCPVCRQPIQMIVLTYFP

For `CC(=O)O[C@@H]1C(=O)C2=C(C(=O)C[C@H]3C(C)(C)C(=O)CC[C@]23C)[C@]2(C)C(=O)C[C@H]([C@H](C)CC(=O)CC(C)C(=O)O)[C@@]12C` (stereo partly drawn) [ganoderic acid F], the pKi (MDM2 protein; virtual screening prediction; read-out: Ki (predicted affinity with MDM2 protein); cited from earlier work) is listed as 6.67.
In the case of `CC(=O)O[C@@H](C/C=C(\C)C(=O)O)[C@@H](C)[C@H]1C[C@H](OC(C)=O)[C@@]2(C)C3=CC[C@H]4C(C)(C)[C@H](OC(C)=O)CC[C@]4(C)C3=CC[C@]12C` [ganoderic acid T], the “sensitivity of 95-D cells (wild-type p53) relative to H1299 cells (no p53)” value [1] is listed as 3.3 times.
In the case of `C[C@H](CC(=O)C[C@@H](C)[C@H]1C[C@H](O)[C@@]2(C)C3=C(C(=O)C[C@]12C)[C@@]1(C)CCC(=O)C(C)(C)[C@@H]1C[C@@H]3O)C(=O)O` [GAA, Ganoderic acid A, reference compound], the “Viability of Cells (% of Control)” value (HK-2 cells; 50 µM) was 117.8 ± 6.3 % of Control, the “Viability of Cells (% of Control)” value (HK-2 cells; 100 µM) was 104.9 ± 7.6 % of Control and the “Viability of Cells (% of Control)” value ([2]; MCF-7, 25 µM) was 109.9 ± 2.1 % of Control. For the same compound, the “Viability of Cells (% of Control)” value ([2]; MCF-7, 50 µM) was 86.2 ± 5.2 % of Control, the “Viability of Cells (% of Control)” value ([2]; MCF-7, 100 µM) was 83.6 ± 9.4 % of Control and the “Viability of Cells (% of Control)” value ([3]; SJSA-1, 50 µM) was 73.5 ± 1.1 % of Control. For the same compound, the “Viability of Cells (% of Control)” value ([3]; SJSA-1, 100 µM) was 74.0 ± 4.0 % of Control, the “Viability of Cells (% of Control)” value (HepG2 cells; HepG2, 25 µM) was 83.0 ± 1.5 % of Control and the “Viability of Cells (% of Control)” value (HepG2 cells; HepG2, 50 µM) was 84.0 ± 0.1 % of Control. For the same compound, the pKi (MDM2 protein; read-out: Ki (predicted affinity with MDM2 protein); virtual screening prediction; cited from earlier work) was 6.83.
